Inconclusive results and toxic doses are left out.
Tested on: L1210 leukemia ip in BDF1 mice, survival T/C
Assay: NCI In Vivo Anticancer Drug Screen. Data for tumor model L1210 Leukemia (intraperitoneal) in B6D2F1 (BDF1) mice
Settings: endpoint: mean survival time, schedule: Q01DX001 (ip), vehicle: saline, higher = longer survival
In short: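 Survival endpoint. Drug-treated group vs vehicle group, expressed as T divided by C. Tumor passaged by transplantation.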

Cc1cccc(C)c1N(C=O)N=O
T/C (dose: 100.0 mg/kg/injection): 110 % of control
T/C (dose: 200.0 mg/kg/injection): 104 % of control

— PubChem BioAssay AID248 (DTP/NCI, 2004)
